The record followed here is PubChem BioAssay (NCI).

The structures appear in SMILES notation.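 Values below derive from 48-hour exposures of cells grown in 96-well plates, with endpoints linearly interpolated between the two concentrations bracketing the appropriate inhibition level. At the GI50, growth is halved. TGI: concentration producing complete growth inhibition.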

What all share (test): NCI-60 cell line screen, 48 h
The test system of assay [1] is NCI/ADR-RES ovarian.
For assay [2], the system named is TK-10 renal.
The test system of assay [3] is SK-MEL-28 melanoma.
In assay [4] the test system is HL-60(TB) leukemia.
In assay [5] the test system is CCRF-CEM leukemia.
The test system of assay [6] is HCC-2998 colon.
The subject of assay [7] is T-47D breast.
In assay [8] the test system is CAKI-1 renal.
Assay [9] relates to BT-549 breast.
Assay [10] relates to KM12 colon.
Assay [11] concerns SK-MEL-5 melanoma.
Assay [12] has as its system SF-295 CNS.
The subject of assay [13] is DU-145 prostate.
For assay [14], the system named is OVCAR-4 ovarian.
The test system of assay [15] is SNB-19 CNS.
The test system of assay [16] is NCI-H460 lung.
In assay [17] the test system is A549 NSCLC.
The test system of assay [18] is NCI-H226 lung.
The test system of assay [19] is A498 renal.

On to `O=C(CCN1CCOCC1)Nc1ccc2sc3ccccc3c(=O)c2n1`, for which the TGI in assay [1], in [2], in assay [3], in [4], in assay [5] and in [6] was more than 100 µM throughout. For the same molecule, the TGI was more than 100 µM in assay [7]; 63.8 µM in assay [8]; more than 100 µM in assay [9]; more than 100 µM in assay [10]; 82.5 µM in [11]; more than 100 µM in assay [12]. Also, the TGI in assay [13], in assay [14], in assay [15], in assay [16] and in assay [17] was more than 100 µM throughout.
Regarding `O=C(O)CCCOc1cc(-c2ccccc2F)nc2cc3c(cc12)OCO3`, the TGI is more than 100 µM in [1]; more than 100 µM in assay [2]; more than 100 µM in assay [3]; 9.86 µM in assay [5]; more than 100 µM in assay [6]; more than 100 µM in [18]. Moreover, the TGI in [7], in assay [8], in [9], in assay [10], in assay [11] and in assay [13] was more than 100 µM each time. The TGI in assay [14] and in assay [17] was more than 100 µM throughout. In assay [18], the GI50 is 8.51 µM.
For `Cc1ccsc1/C=N/Nc1nncc2ccccc12`, the TGI in assay [1], in [2], in assay [3], in [19], in [5] and in assay [6] was more than 100 µM in each case. Moreover, the TGI in assay [18], in assay [7], in [8], in assay [9], in assay [10] and in [11] was more than 100 µM throughout. Further, the TGI in assay [12], in assay [13], in assay [14], in assay [15] and in assay [17] was more than 100 µM throughout.
With `O=C1NC(N2CCCC(CO)C2)=N/C1=C\c1ccc(Cl)cc1` (centres undefined), the TGI in assay [1], in assay [2], in [3], in assay [4], in [5] and in [6] was more than 100 µM each time. Besides, the TGI in assay [18], in assay [7], in [8], in [9], in [10] and in [11] was more than 100 µM each time. The TGI in assay [12], in [13], in assay [14], in assay [15] and in assay [17] was more than 100 µM in each case.
Consider `COc1cc2c(cc1OC)C(N)CC2=O` (centres undefined), for which the TGI in [1], in [2], in assay [3], in assay [19], in assay [5] and in assay [6] was more than 100 µM throughout. Besides, the TGI in assay [18], in assay [7], in assay [8], in assay [9], in assay [10] and in assay [11] was more than 100 µM throughout. For the same molecule, the TGI in assay [12], in assay [13], in assay [14], in [15] and in assay [17] was more than 100 µM throughout.
Regarding `N#CC(Cc1ccccc1Br)N(CCC1=CCCCC1)C(c1ccccc1)c1ccccc1` (centres undefined), the TGI in assay [1], in [2], in assay [3], in [19], in [6] and in assay [7] was more than 100 µM throughout. In addition, the TGI in assay [8], in assay [9], in [10], in assay [11], in assay [12] and in assay [13] was more than 100 µM in each case. For the same molecule, the TGI in [14], in [15], in assay [16] and in [17] was more than 100 µM each time.
With `CN1CCC23c4c5ccc(O)c4OC2c2[nH]c4ccccc4c2CC3(O)C1C5` (centres undefined), the TGI in assay [1] is more than 100 µM; in [2] it was 43.5 µM; in assay [3], 28.4 µM; in [19], 38 µM; in assay [5] it was 46.9 µM; in [6], 32 µM. The TGI in assay [7] was 46.9 µM; in [8], more than 100 µM; in [9] it was more than 100 µM; in [10], more than 100 µM; in assay [11], 27.1 µM; in assay [12], more than 100 µM. The TGI in assay [13], in assay [14], in [15], in [16] and in assay [17] was more than 100 µM each time.
Regarding `COc1cc2c(cc1OCc1ccccc1)NC(=S)[C@@H]1CCCN1C2=S`, the TGI in assay [1], in assay [2], in assay [3], in assay [19], in assay [5] and in [6] was more than 100 µM each time. For the same molecule, the TGI in assay [18], in assay [7], in assay [8], in assay [9], in [10] and in assay [11] was more than 100 µM throughout. The TGI in assay [12], in assay [13], in assay [14], in assay [15], in assay [16] and in assay [17] was more than 100 µM throughout.
